Experimental data from patent US20150246025A1, “2-PHENYL-5-HETEROCYCLYL-TETRAHYDRO-2H-PYRAN-3-AMINE COMPOUNDS FOR USE IN THE TREATMENT OF DIABETES AND ITS ASSOCIATED DISORDERS” (CADILA HEALTHCARE LIMITED, priority 2012, published 2015).

What was measured:
[1] = test system: C57BL/6J mice; test: In vivo antihyperglycaemic/antidiabetic activity (OGTT), acute single dose 120-min time-course; conditions: Mus musculus, 2 h; male C57BL/6J mice, acute single dose 0,3 mg/kg po, 120-min time-course, n = 6, Mean ± SEM; read-out: In vivo OGTT C57; % Glucose change
Procedure: Acute single dose 120-min time-course experiments were carried out in male C57BL/6J mice, age 8-12 weeks, bred in-house. Animals were housed in groups of 6 animals per cage, for a week, in order to habituate them to vivarium conditions (25±4° C., 60-65% relative humidity, 12: 12 h light: dark cycle, with lights on at 7.30 am). All the animal experiments were carried out according to the internationally valid guidelines following approval by the ‘Zydus Research Center animal ethical committee’.
The in-vivo glucose lowering properties of the test compounds were evaluated in C57BL/6J (mild hyperglycemic) animal models as described below. Two days prior to the study, the animals were randomized and divided into groups (n=6), based upon their fed glucose levels. On the day of experiment, food was withdrawn from all the cages, water was given ad-libitum and were kept for overnight fasting. Vehicle (normal saline)/test compounds were administered orally, on a body weight basis. Soon after the 0 min. blood collection from each animal, the subsequent blood collections were done at 30, 60 and 120 or upto 240 min., via retro-orbital route, under light ether anesthesia (Diabetes Obesity Metabolism, 7, 307, 2005; Diabetes, 52, 751, 2003).
Blood samples were centrifuged and the separated serum was immediately subjected for the glucose estimation. Serum for insulin estimation was stored at −70° C. until used for the insulin estimation. The glucose estimation was carried out with DPEC-GOD/POD method (Ranbaxy Fine Chemicals Limited, Diagnostic division, India), using Spectramax-190, in 96-microwell plate reader (Molecular devices Corporation, Sunnyvale, Calif.). […] The AUC and BCAUC obtained from graphs were analyzed for one way ANOVA, followed by Dunnett's post test, using Graph Pad prism software.

[2] = target: T1, DPP-IV enzyme (Homo sapiens, UniProt P27487); test: In vitro DPP-IV inhibitory activity using enzymatic (fluorescence-based) assay; assay type: biochemical; conditions: soluble human DPP-IV, H-Gly-Pro-AMC 200 μM, pH 7.8, 25° C., 30 min; read-out: % In-vitro DPPIV Inhibition IC50
T1 construct: soluble human proteins (DPP-IV enzyme) produced in a baculovirus expression system; made in house; host or cells: baculovirus expression system (Life Technologies)
Procedure: In Vitro DPP-IV Inhibitory Activity Using Enzymatic Assay:
In vitro enzyme (DPP-IV) inhibitory activity was determined using fluorescence-based assay (Anal. Biochem., 200, 352, 1992). The Gly-Pro-AMC was used as a substrate (which is cleaved by the enzymes to release the fluorescent AMC) and soluble human proteins (DPP-IV enzyme) produced in a baculovirus expression system (Life Technologies) was used as the enzyme source. The H-Gly-Pro-AMC (200 μM) was incubated with DPP-IV enzyme in the presence of various concentrations (30 & 100 nM) of test compounds. Reaction was carried out at pH 7.8 (HEPES buffer 25 mM containing 1.0% BSA, 140 mM NaCl, 16 mM MgCl2, 2.8% DMSO) in a total volume of 100 μl at 25° C. for 30 min., in the dark. Reaction was terminated with acetic acid (25 μl of 25% solution). Activity (fluorescence) was measured using Spectra Max fluorometer (Molecular Devices, Sunnyvale Calif.) by exciting at 380 nm and emission at 460 nm.

T1 sequence (P27487 39-766 limits assumed): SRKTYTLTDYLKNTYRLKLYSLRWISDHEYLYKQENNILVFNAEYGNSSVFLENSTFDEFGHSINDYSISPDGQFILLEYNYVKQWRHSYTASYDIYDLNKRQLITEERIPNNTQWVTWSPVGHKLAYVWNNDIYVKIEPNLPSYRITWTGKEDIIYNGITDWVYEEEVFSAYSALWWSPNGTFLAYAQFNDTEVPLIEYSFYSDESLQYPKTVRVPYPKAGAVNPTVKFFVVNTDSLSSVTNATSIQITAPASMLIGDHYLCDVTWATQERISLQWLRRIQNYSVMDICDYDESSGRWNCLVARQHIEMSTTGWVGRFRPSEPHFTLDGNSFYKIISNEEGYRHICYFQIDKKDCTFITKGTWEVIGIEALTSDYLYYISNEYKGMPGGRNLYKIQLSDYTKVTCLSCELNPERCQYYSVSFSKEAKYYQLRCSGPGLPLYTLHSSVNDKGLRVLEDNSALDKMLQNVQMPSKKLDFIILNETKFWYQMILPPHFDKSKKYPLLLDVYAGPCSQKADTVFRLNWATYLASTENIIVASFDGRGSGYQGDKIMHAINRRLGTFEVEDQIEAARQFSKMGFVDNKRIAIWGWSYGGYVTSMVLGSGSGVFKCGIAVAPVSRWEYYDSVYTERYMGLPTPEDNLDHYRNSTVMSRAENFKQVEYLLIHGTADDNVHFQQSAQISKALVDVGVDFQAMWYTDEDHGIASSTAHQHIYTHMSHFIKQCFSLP

IC50 [2] [nM]	Structure (SMILES)	change in vivo at 0.3 mg/kg [1] [%]
< 100	CS(=O)(=O)N1CCC2(CCN([C@H]3CO[C@H](c4cc(F)ccc4F)[C@@H](N)C3)C2)CC1 [Compound 14, (2R,3S,5R)-2-(2,5-difluorophenyl)-5-(8-(methylsulfonyl)-2,8-diazaspiro[4.5]decan-2-yl)tetrahydro-2H-pyran-3-amine]	-14.2 ± 3.4
< 100	CS(=O)(=O)N1CCC2CN([C@H]3CO[C@H](c4cc(F)ccc4F)[C@@H](N)C3)CC21 (stereo partly drawn) [Compound 15, (2R,3S,5R)-2-(2,5-difluorophenyl)-5-(1-(methylsulfonyl)hexahydropyrrolo[3,4-b]pyrrol-5(1H)-yl)tetrahydro-2H-pyran-3-amine]	-42 ± 1.8
< 100	CS(=O)(=O)N1CC2CCN([C@H]3CO[C@H](c4cc(F)ccc4F)[C@@H](N)C3)C2C1 (stereo partly drawn) [Compound 16, (2R,3S,5R)-2-(2,5-difluorophenyl)-5-(5-(methylsulfonyl)hexahydropyrrolo[3,4-b]pyrrol-1(2H)-yl)tetrahydro-2H-pyran-3-amine]	-29.4 ± 6.8
< 100	N[C@H]1C[C@@H](N2CC3CN(Cc4ccccc4)CC3C2)CO[C@@H]1c1cc(F)ccc1F (stereo partly drawn) [Compound 18, (2R,3S,5R)-5-(5-benzylhexahydropyrrolo[3,4-c]pyrrol-2(1H)-yl)-2-(2,5-difluorophenyl)tetrahydro-2H-pyran-3-amine]	-12.6 ± 4
< 100	CS(=O)(=O)N1C[C@H]2CN([C@H]3CO[C@H](c4cc(F)ccc4F)[C@@H](N)C3)C[C@H]21 [Compound 19, (2R,3S,5R)-2-(2,5-difluorophenyl)-5-((1R,5S)-6-(methylsulfonyl)-3,6-diazabicyclo[3.2.0]heptan-3-yl)tetrahydro-2H-pyran-3-amine]	-20.6 ± 3
< 100	CS(=O)(=O)N1C[C@H]2CN([C@H]3CO[C@H](c4cc(F)ccc4F)[C@@H](N)C3)[C@H]2C1 [Compound 20, (2R,3S,5R)-2-(2,5-difluorophenyl)-5-((1R,5R)-3-(methylsulfonyl)-3,6-diazabicyclo[3.2.0]heptan-6-yl)tetrahydro-2H-pyran-3-amine]	-8.4 ± 1.7
< 100	CS(=O)(=O)NC1CC2CN([C@H]3CO[C@H](c4cc(F)ccc4F)[C@@H](N)C3)CC2C1 (stereo partly drawn) [Compound 21, N-(2-((3R,5S,6R)-5-amino-6-(2,5-difluorophenyl)tetrahydro-2H-pyran-3-yl)octahydrocyclopenta[c]pyrrol-5-yl)methanesulfonamide]	-15 ± 4
< 30	N[C@H]1C[C@@H](N2CC3=C(CN(C(=O)C4CC4)C3)C2)CO[C@@H]1c1cc(F)ccc1F [Compound 22, (2R,3S,5R)-5-(5-(cyclopropanecarbonyl)-5,6-dihydropyrrolo[3,4-c]pyrrol-2(1H,3H,4H)-yl)-2-(2,5-difluorophenyl)tetrahydro-2H-pyran-3-amine]	-25.1 ± 2
< 30	N[C@H]1C[C@@H](N2CC3=C(CN(C(=O)c4ccccc4)C3)C2)CO[C@@H]1c1cc(F)ccc1F [Compound 23, (5-((3R,5S,6R)-5-amino-6-(2,5-difluorophenyl)tetrahydro-2H-pyran-3-yl)-5,6-dihydropyrrolo[3,4-c]pyrrol-2(1H,3H,4H)-yl)(phenyl)methanone]	-22 ± 1.2
< 30	CC(C)C(=O)N1CC2=C(C1)CN([C@H]1CO[C@H](c3cc(F)ccc3F)[C@@H](N)C1)C2 [Compound 24, 1-(5-((3R,5S,6R)-5-amino-6-(2,5-difluorophenyl)tetrahydro-2H-pyran-3-yl)-5,6-dihydropyrrolo[3,4-c]pyrrol-2(1H,3H,4H)-yl)-2-methylpropan-1-one]	-18.9 ± 5.7
< 30	N[C@H]1C[C@@H](N2CC3=C(CN(C(=O)C4CCCC4)C3)C2)CO[C@@H]1c1cc(F)ccc1F [Compound 25, (5-((3R,5S,6R)-5-amino-6-(2,5-difluorophenyl)tetrahydro-2H-pyran-3-yl)-5,6-dihydropyrrolo[3,4-c]pyrrol-2(1H,3H,4H)-yl)(cyclopentyl)methanone]	-12.2 ± 2.5
< 30	N[C@H]1C[C@@H](N2CC3=C(CN(C(=O)C4CCCCC4)C3)C2)CO[C@@H]1c1cc(F)ccc1F [Compound 26, (5-((3R,5S,6R)-5-amino-6-(2,5-difluorophenyl)tetrahydro-2H-pyran-3-yl)-5,6-dihydropyrrolo[3,4-c]pyrrol-2(1H,3H,4H)-yl)(cyclohexyl)methanone]	-20.1 ± 1.4
< 10	COC(=O)N1CC2=C(C1)CN([C@H]1CO[C@H](c3cc(F)ccc3F)[C@@H](N)C1)C2 [Compound 27, (2R,3S,5R)-2-(2,5-difluorophenyl)-5-(5-(methoxycarbonyl)-5,6-dihydropyrrolo-[3,4-c]pyrrol-2(1H,3H,4H)-yl)tetrahydro-2H-pyran-3-amine]	-13.7 ± 1.2
< 10	CCOC(=O)N1CC2=C(C1)CN([C@H]1CO[C@H](c3cc(F)ccc3F)[C@@H](N)C1)C2 [Compound 28, (2R,3S,5R)-2-(2,5-difluorophenyl)-5-(5-(ethoxycarbonyl)-5,6-dihydropyrrolo[3,4-c]pyrrol-2(1H,3H,4H)-yl)tetrahydro-2H-pyran-3-amine]	-35 ± 6.1
< 30	N[C@H]1C[C@@H](N2CC3=C(C2)CN(S(=O)(=O)C(F)(F)F)C3)CO[C@@H]1c1cc(F)ccc1F [Compound 29, (2R,3S,5R)-2-(2,5-difluorophenyl)-5-(5-((trifluoromethyl)sulfonyl)-5,6-dihydropyrrolo[3,4-c]pyrrol-2(1H,3H,4H)-yl)tetrahydro-2H-pyran-3-amine]	-27.7 ± 3.1
< 10	CCS(=O)(=O)N1CC2=C(CN([C@H]3CO[C@H](c4cc(F)ccc4F)[C@@H](N)C3)C2)C1 [Compound 30, (2R,3S,5R)-2-(2,5-difluorophenyl)-5-(5-(ethylsulfonyl)-5,6-dihydropyrrolo[3,4-c]pyrrol-2(1H,3H,4H)-yl)tetrahydro-2H-pyran-3-amine]	-35 ± 1.4
< 10	CC(C)S(=O)(=O)N1CC2=C(CN([C@H]3CO[C@H](c4cc(F)ccc4F)[C@@H](N)C3)C2)C1 [Compound 31, (2R,3S,5R)-2-(2,5-difluorophenyl)-5-(5-(isopropylsulfonyl)-5,6-dihydropyrrolo[3,4-c]pyrrol-2(1H,3H,4H)-yl)tetrahydro-2H-pyran-3-amine]	-28.1 ± 3.2
< 10	N[C@H]1C[C@@H](N2CC3=C(C2)CN(S(=O)(=O)c2ccccc2)C3)CO[C@@H]1c1cc(F)ccc1F [Compound 32, (2R,3S,5R)-2-(2,5-difluorophenyl)-5-(5-(phenylsulfonyl)-5,6-dihydropyrrolo[3,4-c]pyrrol-2(1H,3H,4H)-yl)tetrahydro-2H-pyran-3-amine]	-25.3 ± 3.9
< 30	N[C@H]1C[C@@H](N2CC3=C(C2)CN(S(=O)(=O)c2ccc(F)cc2)C3)CO[C@@H]1c1cc(F)ccc1F [Compound 33, (2R,3S,5R)-2-(2,5-difluorophenyl)-5-(5-((4-fluorophenyl)sulfonyl)-5,6-dihydropyrrolo[3,4-c]pyrrol-2 (1H,3H,4H)-yl)tetrahydro-2H-pyran-3-amine]	-16.8 ± 1.6
< 10	N#Cc1ccc(S(=O)(=O)N2CC3=C(CN([C@H]4CO[C@H](c5cc(F)ccc5F)[C@@H](N)C4)C3)C2)cc1 [Compound 34, 4-((5-((3R,5S,6R)-5-amino-6-(2,5-difluorophenyl)tetrahydro-2H-pyran-3-yl)-5,6-dihydropyrrolo[3,4-c]pyrrol-2(1H,3H,4H)-yl)sulfonyl)benzonitrile]	-30.1 ± 3.4
< 30	N[C@H]1C[C@@H](N2CC3=C(C2)CN(S(=O)(=O)c2ccc(OC(F)(F)F)cc2)C3)CO[C@@H]1c1cc(F)ccc1F [Compound 35, (2R,3S,5R)-2-(2,5-difluorophenyl)-5-(5-((4-(trifluoromethoxy)phenyl)sulfonyl)-5,6-dihydropyrrolo[3,4-c]pyrrol-2(1H,3H,4H)-yl)tetrahydro-2H-pyran-3-amine]	-20.5 ± 3.8
